Test results: patent EP0007206A1, “Phenethanolamines, their formulations, preparation and use” (ELI LILLY AND COMPANY, priority 1978, dated 1980)

Assays:
Type in all cases: in vivo, mice
mecca- lymphosarcoma = assay: combination chemotherapy with 5 FU, implanted mecca lymphosarcoma (Table 3); settings: 5 FU 4 mg./kg. i.p. once daily, A 18.75 mg./kg. s.c. twice daily
Protocol: (§1) In a typical experiment, laboratory mice were infected by a subcutaneous implantation of a tumor tissue in the axillary region of the body. The implantations were accomplished by means of a trocar. Initial tumor size in each animal generally was about 2 square millimeters. Tumor size was then measured periodically as length and width in mm. Typical tumor systems implanted included adenocarcinoma 755, an Aly Fast strain of bronchiogenic carcinoma, and mecca lymphosarcoma. Oncolytic agents utilized in the tests to determine the potentiating effects of the compounds of the invention.include cytoxan, 5-fluorouracil, vindesine, methotrexate and 6-mercaptopurine. Twenty or thirty infected animals generally were selected as controls and received placebo. Ten infected animals normally were selected to receive a known oncolytic agent. Another ten infected animals were administered the known oncolytic agent in addition to a compound of this invention.
A similar study was carried out to determine the synergistic effect of N-(2-phenyl-2-hydroxyethyl)-1,1-dimethyl-3-(4-hydroxyphenyl)-propylaminium bromide (compound A) on the antineoplastic activity of 5-fluorouracil (designated in Table 3 as 5 FU) in the treatment of a mecca- lymphosarcoma in mice. 5-Fluorouracil was administered intraperitoneally at the rate of 4 mg./kg. once each day to a group of five test animals. Another group of five infected animals received the combination of 4 mg./kg. of 5 FU given intraperitoneally once each day plus the potentiating agent (compound A) given subcutaneously twice each day at the dose of 18.75 mg./kg. A group of 20 infected animals received placebo. Measurements of average tumor size for each group of animals were made on the tenth, fourteenth and eighteenth day following initial tumor implantation and dosing. Column I under each of the reported days gives the average tumor size in square millimeters. Column II under each of the reported days gives the number of surviving animals out of each test group. […] Moreover, after eighteen days of treatment, three of the five animals receiving combination chemotherapy were still alive, whereas all of the control animals and those receiving 5-FU alone had died.

755 adenocarcinoma [1] = assay: combination chemotherapy with 5-fluorouracil, implanted 755 adenocarcinoma (Table 6); settings: for number of tumor free animals out of those still living / average tumor size: 5 FU 8 mg./kg. i.p. days 5, 9, 13, B 7.5 mg./kg. s.c. twice daily days 5 through 14
Protocol: as §1, with “Twenty or thirty infected animals generally were selected as controls and received placebo.” left out
5-Fluorouracil is essentially ineffective against the 755 adenocarcinoma in mice. […] Mice were infected by an implantation of the 755 adenocarcinoma. Thirty animals were given placebo, ten were given 5-fluorouracil alone, and ten were given N-(2-phenyl-2-hydroxyethyl)-1,1-dimethyl-3-(4-aminocarbonylphenyl)propylaminium chloride in combination with 5-fluorouracil. Treatment in all cases was started five days after implantation of the tumor system. 5-Fluorouracil was administered intraperitoneally at the rate of 8 mg./kg. given once on days 5, 9 and 13 following implantation, both to the animals receiving 5-FU alone and the combination. The animals undergoing combination chemotherapy received, in addition to 5-FU, N-(2-phenyl-2-hydroxyethyl)-l,l-dimethyl-3-(4-aminocarbonylphenyl)propylaminium chloride (compound B) at the rate of 7.5 mg./kg. given subcutaneously twice daily on days 5 through 14 of the test. Column I under each of the days of measurement reports the average tumor size in square millimeters of each test group. Column II under each of the days of measurement is the number of tumor free animals out of those still living on that day.

[2] = test system: adenocarcinoma tumor resembling human breast tumor (the 755 tumor system); assay: combination chemotherapy with 6 MP, implanted 755 adenocarcinoma (Table 2); settings: 6 MP 1.5 mg./kg. orally once daily, A 3.75 mg./kg. s.c. twice daily
Protocol: as §1, with “Twenty or thirty infected animals generally were selected as controls and received placebo.” left out
According to the test, 6 MP was administered alone to 10 mice orally at the dose of 1.5 mg./kg. once each day for twenty-eight days. Another group of ten mice received 6 MP daily (1.5 mg./kg.) plus the compound of this invention (A), which was administered subcutaneously at the rate of 3.75 mg./kg. twice daily for twenty-eight days. […] The average tumor size for the test group on the indicated day of measurement is reported in column I under each of the reported days of measurement. In column II of each of the reported days of measurement is recorded the number of surviving animals out of the particular test group.

755 adenocarcinoma [3] = assay: combination chemotherapy with 6-mercaptopurine, implanted 755 adenocarcinoma (Table 7); settings: by day 29; 6 MP 4 mg./kg. i.p. once per day on days 5, 9, 13
Protocol: as §1
Mice were infected by implantation of a 755 adenocarcinoma. Thirty mice were held as controls and received only placebo. Ten mice were administered 4 mg./kg. of 6-mercaptopurine (6 MP) intraperitoneally once per day on the fifth, ninth and thirteenth days following implantation. […]

Question: Which results are given for `O=c1[nH]cc(F)c(=O)[nH]1` [5 FU, 5-fluorouracil]?
Answer: number of surviving animals out of test group (mecca- lymphosarcoma; Day 0): 5/5; average tumor size (mecca- lymphosarcoma; Day 10): 490 square millimeters; number of surviving animals out of test group (mecca- lymphosarcoma; Day 10): 5/5; average tumor size (mecca- lymphosarcoma; Day 14): 490 square millimeters; number of surviving animals out of test group (mecca- lymphosarcoma; Day 14): 4/5; number of surviving animals out of test group (mecca- lymphosarcoma; Day 18): 0/5; number of tumor free animals out of those still living (755 adenocarcinoma [1]; Day 0): 0/10; average tumor size (755 adenocarcinoma [1]; Day 5): 95 square millimeters; number of tumor free animals out of those still living (755 adenocarcinoma [1]; Day 5): 0/10; average tumor size (755 adenocarcinoma [1]; Day 12): 350 square millimeters; number of tumor free animals out of those still living (755 adenocarcinoma [1]; Day 12): 0/10; average tumor size (755 adenocarcinoma [1]; Day 17): 630 square millimeters; number of tumor free animals out of those still living (755 adenocarcinoma [1]; Day 17): 0/9; average tumor size (755 adenocarcinoma [1]; Day 23): 680 square millimeters; number of tumor free animals out of those still living (755 adenocarcinoma [1]; Day 23): 0/6; number of tumor free animals out of those still living (755 adenocarcinoma [1]; Day 29): 0/0; number of tumor free animals out of those still living (755 adenocarcinoma [1]; Day 73): 0/0; effectiveness in the treatment of the 755 adenocarcinoma (755 adenocarcinoma [1]; mice, summary in words of Table 6): ineffective

Question: What does the source list for `Sc1ncnc2nc[nH]c12` [6 MP, 6-mercaptopurine]?
Answer: number of surviving animals out of test group ([2]; Day 0): 10/10; average tumor size ([2]; Day 9): 100 square millimeters; number of surviving animals out of test group ([2]; Day 9): 9/10; average tumor size ([2]; Day 17): 340 square millimeters; number of surviving animals out of test group ([2]; Day 17): 7/10; average tumor size ([2]; Day 23): 680 square millimeters; number of surviving animals out of test group ([2]; Day 23): 6/10; average tumor size ([2]; Day 28): 1050 square millimeters; number of surviving animals out of test group ([2]; Day 28): 1/10; animals that had died out of ten (755 adenocarcinoma [3]): All ten
